What all share (test): relative viability (nuclei count vs DMSO), 5 days (fraction); higher = more cells survive
Compound in assay [1]: C1COCCN1C2=NC(=NC3=C2OC4=C3C=CC=N4)C5=CC(=CC=C5)NC(=O)C6=CN=C(C=C6)N + CS(=O)(=O)N1CCN(Cc2cc3nc(-c4cccc5[nH]ncc45)nc(N4CCOCC4)c3s2)CC1 [Pictilisib] (partner 1 µM)
The method in brief: (§1)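 One day after seeding in 1536-well plates, lung cancer cell lines were dosed by pin tool. Dosing was either single-drug or a fixed anchor-drug dose plus five library-drug doses (not always all listed) in √10 steps. After 5 days, nuclei were stained in one fix-and-stain step and counted on 4× images, and relative viability is the nuclei count of treated wells over that of vehicle wells, given as the median of duplicate plates.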

Compound in the assay “SGI-1776 + Tozasertib”: CN1CCC(CNc2ccc3ncc(-c4cccc(OC(F)(F)F)c4)n3n2)CC1 [SGI-1776] + Cc1cc(Nc2cc(N3CCN(C)CC3)nc(Sc3ccc(NC(=O)C4CC4)cc3)n2)n[nH]1 [Tozasertib] (partner 0.1 µM)
The method in brief:
as §1

Compound in the assay “Entinostat + Trametinib”: Nc1ccccc1NC(=O)c1ccc(CNC(=O)OCc2cccnc2)cc1 [Entinostat] + CC(=O)Nc1cccc(-n2c(=O)n(C3CC3)c(=O)c3c(Nc4ccc(I)cc4F)n(C)c(=O)c(C)c32)c1 [Trametinib] (partner 0.02 µM)
In outline: as §1

Compound in the assay “Entinostat + Decitabine”: Nc1ccccc1NC(=O)c1ccc(CNC(=O)OCc2cccnc2)cc1 [Entinostat] + Nc1ncn([C@H]2C[C@H](O)[C@@H](CO)O2)c(=O)n1 [Decitabine] (partner 2 µM)
In outline: as §1

On to UMC-11, for which the relative viability was found to be 0.837 in assay [1] (first compound 0.02 µM); 0.875 in assay [1] (first compound 0.06325 µM); 0.791 in assay [1] (first compound 0.2 µM); 0.776 in assay [1] (first compound 0.6325 µM); 0.598 in assay [1] (first compound 2 µM); 0.21 with SGI-1776 + Tozasertib (first compound 0.08 µM). The relative viability was found to be 0.194 with SGI-1776 + Tozasertib (first compound 0.8 µM); 0.208 in the assay with SGI-1776 + Tozasertib (first compound 2.53 µM); 0.197 with SGI-1776 + Tozasertib (first compound 8 µM); 0.736 in the assay with Entinostat + Trametinib (first compound 0.02 µM); 0.895 with Entinostat + Trametinib (first compound 0.06325 µM); 0.554 in the assay with Entinostat + Trametinib (first compound 0.2 µM). For the same cell line, the relative viability with Entinostat + Trametinib (first compound 0.6325 µM) was 0.163; with Entinostat + Trametinib (first compound 2 µM), 0.142; with Entinostat + Decitabine (first compound 0.02 µM), 0.65; in the assay with Entinostat + Decitabine (first compound 0.06325 µM) it was 0.681; in the assay with Entinostat + Decitabine (first compound 0.2 µM), 0.506; with Entinostat + Decitabine (first compound 0.6325 µM) it was 0.386. Also, the relative viability with Entinostat + Decitabine (first compound 2 µM) was found to be 0.725.

The record behind these values is the supplement of paper PMC10307832.
